Assay results taken from PMC10408569, “Recruitment of hexahydroquinoline as anticancer scaffold targeting inhibition of wild and mutants EGFR (EGFR^WT, EGFR^T790M, and EGFR^L858R)” (Journal of Enzyme Inhibition and Medicinal Chemistry, 2023).

Experiments:
[1] = test system: NCI 60 cancer cell lines; assay: NCI-60 anticancer screening (SRB), whole panel; assay type: cell-based, human; settings: mean across the NCI-60 panel; one dose 10 μM
[2] = test system: MDA-MB-231; assay: NCI-60 anticancer screening (SRB); assay type: cell-based; settings: Homo sapiens; MDA-MB-231, breast cancer; one dose 10 μM; read-out: Growth Inhibition Percentage (GI %)
[3] = test system: 786-0; assay: NCI-60 anticancer screening (SRB); assay type: cell-based; settings: Homo sapiens; 786-0, renal cancer; one dose 10 μM; read-out: Growth Inhibition Percentage (GI %)
[4] = test system: OVCAR-8; assay: NCI-60 anticancer screening (SRB); assay type: cell-based; settings: Homo sapiens; OVCAR-8, ovarian cancer; one dose 10 μM; read-out: Growth Inhibition Percentage (GI %)
[5] = test system: IGROV1; assay: NCI-60 anticancer screening (SRB); assay type: cell-based; settings: Homo sapiens, IGROV-1; IGROV1, ovarian cancer; one dose 10 μM; read-out: Growth Inhibition Percentage (GI %)
[6] = test system: NCI/ADR-RES; assay: NCI-60 anticancer screening (SRB); assay type: cell-based; settings: Homo sapiens, ovarian cancer, one dose 10 μM, read-out: Growth Inhibition Percentage (GI %)
[7] = test system: MALME-3M; assay: NCI-60 anticancer screening (SRB); assay type: cell-based; settings: Homo sapiens, melanoma, one dose 10 μM, read-out: Growth Inhibition Percentage (GI %)
[8] = test system: MDA-MB-468; assay: NCI-60 anticancer screening (SRB); assay type: cell-based; settings: Homo sapiens; MDA-MB-468, breast cancer; one dose 10 μM; read-out: Growth Inhibition Percentage (GI %)
[9] = test system: MOLT-4; assay: NCI-60 anticancer screening (SRB); assay type: cell-based; settings: Homo sapiens; MOLT-4, leukemia; one dose 10 μM; read-out: Growth Inhibition Percentage (GI %)
[10] = test system: KM 12; assay: NCI-60 anticancer screening (SRB); assay type: cell-based; settings: Homo sapiens, KM12; KM 12, colon cancer; one dose 10 μM; read-out: Growth Inhibition Percentage (GI %)
[11] = test system: HCC-2998; assay: NCI-60 anticancer screening (SRB); assay type: cell-based; settings: Homo sapiens; HCC-2998, colon cancer; one dose 10 μM; read-out: Growth Inhibition Percentage (GI %)
[12] = test system: CAKI-1; assay: NCI-60 anticancer screening (SRB); assay type: cell-based; settings: Homo sapiens; CAKI-1, renal cancer; one dose 10 μM; read-out: Growth Inhibition Percentage (GI %)
[13] = test system: OVCAR-5; assay: NCI-60 anticancer screening (SRB); assay type: cell-based; settings: Homo sapiens; OVCAR-5, ovarian cancer; one dose 10 μM; read-out: Growth Inhibition Percentage (GI %)
[14] = test system: EKVX; assay: NCI-60 anticancer screening (SRB); assay type: cell-based; settings: Homo sapiens, NSC lung cancer, one dose 10 μM, read-out: Growth Inhibition Percentage (GI %)
[15] = test system: UACC-257; assay: NCI-60 anticancer screening (SRB); assay type: cell-based; settings: Homo sapiens; UACC-257, melanoma; one dose 10 μM; read-out: Growth Inhibition Percentage (GI %)
[16] = test system: U251; assay: NCI-60 anticancer screening (SRB); assay type: cell-based; settings: Homo sapiens, U-251; U251, CNS cancer; one dose 10 μM; read-out: Growth Inhibition Percentage (GI %)
[17] = test system: UO-31; assay: NCI-60 anticancer screening (SRB); assay type: cell-based; settings: Homo sapiens; UO-31, renal cancer; one dose 10 μM; read-out: Growth Inhibition Percentage (GI %)
[18] = test system: HCT-15; assay: NCI-60 anticancer screening (SRB); assay type: cell-based; settings: Homo sapiens; HCT-15, colon cancer; one dose 10 μM; read-out: Growth Inhibition Percentage (GI %)
[19] = test system: COLO 205; assay: NCI-60 anticancer screening (SRB); assay type: cell-based; settings: Homo sapiens; COLO 205, colon cancer; one dose 10 μM; read-out: Growth Inhibition Percentage (GI %)
[20] = test system: OVCAR-3; assay: NCI-60 anticancer screening (SRB); assay type: cell-based; settings: Homo sapiens; OVCAR-3, ovarian cancer; one dose 10 μM; read-out: Growth Inhibition Percentage (GI %)
[21] = test system: HL-60(TB); assay: NCI-60 anticancer screening (SRB); assay type: cell-based; settings: Homo sapiens, leukemia, one dose 10 μM, read-out: Growth Inhibition Percentage (GI %)
[22] = test system: A549/ATCC; assay: NCI-60 anticancer screening (SRB); assay type: cell-based; settings: Homo sapiens; A549/ATCC, NSC lung cancer; one dose 10 μM; read-out: Growth Inhibition Percentage (GI %)
[23] = test system: MDA-MB-435; assay: NCI-60 anticancer screening (SRB); assay type: cell-based; settings: Homo sapiens; MDA-MB-435, melanoma; one dose 10 μM; read-out: Growth Inhibition Percentage (GI %)
[24] = test system: SK-MEL-2; assay: NCI-60 anticancer screening (SRB); assay type: cell-based; settings: Homo sapiens; SK-MEL-2, melanoma; one dose 10 μM; read-out: Growth Inhibition Percentage (GI %)
[25] = test system: DU-145; assay: NCI-60 anticancer screening (SRB); assay type: cell-based; settings: Homo sapiens; DU-145, prostate cancer; one dose 10 μM; read-out: Growth Inhibition Percentage (GI %)
[26] = test system: BT-549; assay: NCI-60 anticancer screening (SRB); assay type: cell-based; settings: Homo sapiens; BT-549, breast cancer; one dose 10 μM; read-out: Growth Inhibition Percentage (GI %)
[27] = test system: SNB-75; assay: NCI-60 anticancer screening (SRB); assay type: cell-based; settings: Homo sapiens; SNB-75, CNS cancer; one dose 10 μM; read-out: Growth Inhibition Percentage (GI %)
[28] = test system: HOP-62; assay: NCI-60 anticancer screening (SRB); assay type: cell-based; settings: Homo sapiens; HOP-62, NSC lung cancer; one dose 10 μM; read-out: Growth Inhibition Percentage (GI %)
[29] = test system: NCI-H322M; assay: NCI-60 anticancer screening (SRB); assay type: cell-based; settings: Homo sapiens, NSC lung cancer, one dose 10 μM, read-out: Growth Inhibition Percentage (GI %)
[30] = test system: NCI-H522; assay: NCI-60 anticancer screening (SRB); assay type: cell-based; settings: Homo sapiens; NCI-H522, NSC lung cancer; one dose 10 μM; read-out: Growth Inhibition Percentage (GI %)
[31] = test system: NCI-H226; assay: NCI-60 anticancer screening (SRB); assay type: cell-based; settings: Homo sapiens; NCI-H226, NSC lung cancer; one dose 10 μM; read-out: Growth Inhibition Percentage (GI %)
[32] = test system: SNB-19; assay: NCI-60 anticancer screening (SRB); assay type: cell-based; settings: Homo sapiens; SNB-19, CNS cancer; one dose 10 μM; read-out: Growth Inhibition Percentage (GI %)

Row | Structure (SMILES) | GI % mean [1] | inhibition at 10 µM [2] [%] | inhibition at 10 µM [3] [%] | inhibition at 10 µM [4] [%] | inhibition at 10 µM [5] [%] | inhibition at 10 µM [6] [%] | melting point [°C] | inhibition at 10 µM [7] [%] | inhibition at 10 µM [8] [%] | inhibition at 10 µM [9] [%] | inhibition at 10 µM [10] [%] | inhibition at 10 µM [11] [%] | inhibition at 10 µM [12] [%] | inhibition at 10 µM [13] [%] | inhibition at 10 µM [14] [%] | inhibition at 10 µM [15] [%] | inhibition at 10 µM [16] [%] | inhibition at 10 µM [17] [%] | inhibition at 10 µM [18] [%] | inhibition at 10 µM [19] [%] | further results
1 | CCOC(=O)C1=C(N)N(c2ccccc2)C2=C(C(=O)CC(C)(C)C2)C1c1ccc(N2CCOCC2)cc1 (racemic) [8l, (±)-Ethyl 2-amino-7,7-dimethyl-4-[4-(morpholin-4-yl)phenyl]-5-oxo-1-phenyl-1,4,5,6,7,8-hexahydroquinoline-3-carboxylate] | - ((-) = GI % mean less than 10) | < 10 | 16 | < 10 | < 10 | < 10 | 193 to 195 | < 10 | < 10 | < 10 | < 10 | < 10 | 18 | < 10 | < 10 | < 10 | < 10 | < 10 | < 10 | < 10 | inhibition at 10 µM [20]: < 10%; inhibition at 10 µM [21]: < 10%; inhibition at 10 µM [22]: < 10%; inhibition at 10 µM [23]: < 10%; inhibition at 10 µM [24]: < 10%; inhibition at 10 µM [25]: < 10%; inhibition at 10 µM [26]: < 10%; inhibition at 10 µM [27]: < 10%; inhibition at 10 µM [28]: < 10%; inhibition at 10 µM [29]: < 10%; inhibition at 10 µM [30]: 11%; inhibition at 10 µM [31]: < 10%; inhibition at 10 µM [32]: < 10%
2 | CCOC(=O)C1=C(N)N(c2ccc(Cl)cc2)C2=C(C(=O)CC(C)(C)C2)C1c1ccc(N2CCOCC2)cc1 (racemic) [8m, (±)-Ethyl 2-amino-1–(4-chlorophenyl)-7,7-dimethyl-4-[4-(morpholin-4-yl)phenyl]-5-oxo-1,4,5,6,7,8-hexahydroquinoline-3-carboxylate] | - ((-) = GI % mean less than 10) | 13 | 11 | < 10 | < 10 | < 10 | 175 to 177 | < 10 | 16 | < 10 | < 10 | < 10 | 13 | < 10 | 25 | < 10 | 12 | 15 | < 10 | < 10 | inhibition at 10 µM [20]: < 10%; inhibition at 10 µM [21]: < 10%; inhibition at 10 µM [22]: < 10%; inhibition at 10 µM [23]: < 10%; inhibition at 10 µM [24]: < 10%; inhibition at 10 µM [25]: < 10%; inhibition at 10 µM [26]: 76%; inhibition at 10 µM [27]: < 10%; inhibition at 10 µM [28]: < 10%; inhibition at 10 µM [29]: < 10%; inhibition at 10 µM [30]: 11%; inhibition at 10 µM [31]: < 10%; inhibition at 10 µM [32]: < 10%
3 | CCOC(=O)C1=C(N)N(c2ccccc2)C2=C(C(=O)CC(C)(C)C2)C1c1cccc(Cl)c1Cl (racemic) [10a, (±)-Ethyl 2-amino-4–(2,3-dichlorophenyl)-7,7-dimethyl-5-oxo-1-phenyl-1,4,5,6,7,8-hexahydroquinoline-3-carboxylate] | 35% | 40 | 42 | 41 | 16 | 49 | 235 to 237 | 19 | 52 | 60 | 23 | 13 | 53 | 12 | 42 | 15 | 45 | 25 | 34 | 19 | inhibition at 10 µM [20]: 13%; inhibition at 10 µM [21]: 54%; inhibition at 10 µM [22]: 39%; inhibition at 10 µM [23]: 13%; inhibition at 10 µM [24]: 41%; inhibition at 10 µM [25]: 19%; inhibition at 10 µM [26]: 31%; inhibition at 10 µM [27]: 43%; inhibition at 10 µM [28]: 59%; inhibition at 10 µM [29]: 22%; inhibition at 10 µM [30]: 25%; inhibition at 10 µM [31]: 60%; inhibition at 10 µM [32]: 58%
4 | CCOC(=O)C1=C(N)N(c2ccc(Cl)cc2)C2=C(C(=O)CC(C)(C)C2)C1c1cccc(Cl)c1Cl (racemic) [10b, (±)-Ethyl 2-amino-1–(4-chorophenyl)-4–(2,3-dichlorophenyl)-7,7-dimethyl-5-oxo-1-phenyl-1,4,5,6,7,8-hexahydroquinoline-3-carboxylate] | 36% | 33 | 22 | 25 | < 10 | 32 | 250 to 252 | 20 | 68 | 70 | 49 | 18 | 53 | < 10 | 58 | 44 | 22 | 49 | 62 | 41 | inhibition at 10 µM [20]: 44%; inhibition at 10 µM [21]: 77%; inhibition at 10 µM [22]: 34%; inhibition at 10 µM [23]: 25%; inhibition at 10 µM [24]: 20%; inhibition at 10 µM [25]: 18%; inhibition at 10 µM [26]: 31%; inhibition at 10 µM [27]: 22%; inhibition at 10 µM [28]: 16%; inhibition at 10 µM [29]: < 10%; inhibition at 10 µM [30]: 30%; inhibition at 10 µM [31]: 42%; inhibition at 10 µM [32]: 22%
